Results: patent publication US20230295116A1, “PROTEASOME ENHANCERS AND USES THEREOF” (Board of Trustees of Michigan State University, priority 2020, published 2023)

Assays:
[1] = molecular target: T1, human constitutive 20S proteasome (Homo sapiens, UniProt P25787+P60900); assay: Fluorogenic peptide degradation 20S proteasome activity assay; type: biochemical; conditions: for AC200 (doubling of 20S activity): combination of the three fluorogenic peptide substrates (CT-L, T-L, Casp-L)
T1 construct: purchased Boston Biochem, Inc. (Cambridge, MA)
From the text: These substrates were a chymotryptic-like (CT-L), a trypsin-like (T-L) and a caspase-like (Casp-L) substrate, one for each of the catalytic sites of the proteasome. It has been shown that the proteasome’s active sites allosterically regulate each other in the presence of their individual substrates. Therefore, a combination of the three probes to represent the overall activity of a 20S activator more accurately in a system in which all catalytic sites are interacting.
The 20S activity of astemizoles and N-acylastemizole (compound 2) was further assessed in the fluorogenic peptide assay, using each of the individual substrates as well as the combination of the three (FIG. 1B). […] The N-acylated analog achieved similar max fold increases for each substrate/combination (>800% increase over vehicle).
Activity assays were carried out in a 100 µL reaction volume. Different concentrations (1-80 µM) of test compounds were added to a black flat/clear bottom 96-well plate containing 1 nM of human constitutive 20S proteasome, in 50 mM Tris-HCl at pH 7.8, 100 mM NaCl and allowed to incubate for 15 min at 37° C. Fluorogenic substrates were then added and the enzymatic activity measured at 37° C. on a SpectraMax M5e spectrometer by measuring the change in fluorescence unit per minute for 1 hour at 380-460 nm. The fluorescence units for the vehicle control were set at a 100%, and the ratio of drug-treated sample set to that of vehicle control was used to calculate the fold change in enzymatic activity. The fluorogenic substrates used were one of the following: Suc-LLVY-AMC (CT-L activity, 20 µM), Z-LLE-AMC (Casp-L activity, 20 µM), Boc-LRR-AMC (T-L activity, 40 µM) or a combination of the three substrates each at 6.67 µM.

[2] = test system: MYC-mediated gene transcription; assay: Myc reporter assay (luciferase); type: cell-based; conditions: Homo sapiens, HCT-116; HCT116 Myc-Luc reporter cells, 16 hours, n=3; read-out: EC50 for inhibition of c-MYC
Experimental: (§1) Firefly luminescence was measured using the One-Step Luciferase Assay System from BPS Biosciences.
as §1

NF-kB transcription = assay: NF-κB reporter assay (luciferase); type: cell-based; conditions: Homo sapiens; HCT-116 NF-kappaB-luc reporter cells, TNF-alpha 2 ng/mL, 16 hours, n=3; read-out: EC50 for inhibition of NF-kB transcription
Experimental: as §1

| Structure (SMILES) | activation of catalytic sites of the 20S proteasome ([1]; CT-L, T-L and Casp-L substrates) | AC200 (doubling of 20S activity) [1] | max fold increase (increase over vehicle) ([1]; each substrate/combination) | EC50 [2] | EC50 (NF-kB transcription) |
| --- | --- | --- | --- | --- | --- |
| COc1ccc(CCN2CCC(Nc3nc4ccccc4n3Cc3ccc(F)cc3)CC2)cc1 [Compound 1, astemizole, reference compound] | activates all three catalytic sites | 3.3 µM |  |  |  |
| COc1ccc(CC(=O)N2CCC(Nc3nc4ccccc4n3Cc3ccc(F)cc3)CC2)cc1 [Compound 2, 1-(4-((1-(4-fluorobenzyl)-1H-benzo[d]imidazol-2-yl)amino)piperidin-1-yl)-2-(4-methoxyphenyl)ethan-1-one] |  | 3.9 µM | > 800% | 19 µM | 18 µM |
